Assay type in all cases: cell-based
Experiment [1] addresses T1, PLK1 (Homo sapiens, UniProt P53350).
T1 construct: endogenous in cells; host or cells: HeLa LgBit (Plk1-HiBit KI): HeLa stably expressing LgBit, with a CRISPR/Cas9 knock-in of HiBit at the endogenous PLK1 locus
As to the kind of experiment: Luciferase assay for PLK1 in HeLa LgBit (Plk1-HiBit KI) cell line. As to conditions: 300 nM compound, luminescence after 9 hours. Summed up:
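Luminescence, followed in real time after adding compound at 300 nM and Endurazine substrate, is reported relative to DMSO-treated wells. Cells are a HeLa LgBit line with a Plk1-HiBit knock-in, synchronized by 2 mM thymidine for 24 h, released, and cultured 18 h before treatment.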
(In general: The HiBiT peptide binds its large partner to form an active luciferase.)

In experiment [2] the test system is NCI-H526 cell line. As to the kind of experiment: Cell viability assay for H526 cell (EZ-Cytox). As to conditions: Homo sapiens, NCI-H526, 120 h; H526 cells, 5 days, 3000 nM to 0.46 nM. Summed up: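 Read-out was EZ-Cytox colorimetric absorbance at 450 nm, taken after brief plate shaking, with IC50 derived. Before reading, H526 cells had been cultured with test compound for 5 days.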

The subject of experiment [3] is MRC-5 cell line. Nature of the experiment: Cell viability assay for MRC-5 cell line (EZ-Cytox). As to conditions: Homo sapiens, MRC5, 120 h; MRC-5 normal cell line, 5 days, 10000 nM to 1.52 nM; N.D. = no cytotoxicity until 10 μM; read-out: Activity: IC50 value of Exemplary Compound to MRC-5 cell line. The protocol: 4. Cell Viability Assay for MRC-5 Cell Line
(1) Culture of MRC-5 Cell Line
Passage of cultured cells was maintained within P15.
(2) Treatment of Compounds of the Present Invention
Then, it was cultured in 37° C.
(3) Cytotoxicity Experiment
CO2 incubator for 4 hours.

The structures appear in SMILES notation. Some results are limits rather than exact numbers.

T1 sequence (P53350 whole entry): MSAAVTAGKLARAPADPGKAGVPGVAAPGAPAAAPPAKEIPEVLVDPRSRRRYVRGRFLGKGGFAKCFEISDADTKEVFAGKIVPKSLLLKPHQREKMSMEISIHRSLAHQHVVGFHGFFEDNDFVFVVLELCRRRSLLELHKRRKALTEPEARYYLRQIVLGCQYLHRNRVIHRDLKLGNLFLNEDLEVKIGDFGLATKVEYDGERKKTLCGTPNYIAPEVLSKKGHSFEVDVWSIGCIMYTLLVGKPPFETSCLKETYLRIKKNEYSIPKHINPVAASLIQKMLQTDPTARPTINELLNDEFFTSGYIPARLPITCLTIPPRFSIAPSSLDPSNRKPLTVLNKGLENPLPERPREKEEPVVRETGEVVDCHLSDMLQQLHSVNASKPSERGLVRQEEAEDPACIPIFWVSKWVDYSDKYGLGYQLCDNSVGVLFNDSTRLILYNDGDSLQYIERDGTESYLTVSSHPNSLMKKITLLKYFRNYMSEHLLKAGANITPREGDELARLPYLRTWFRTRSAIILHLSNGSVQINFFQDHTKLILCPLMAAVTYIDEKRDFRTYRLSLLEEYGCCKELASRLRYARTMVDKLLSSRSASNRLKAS

The IC50 is the concentration at which inhibition is half-maximal. Consider `COc1cc(C(=O)NC2CCN(C(=O)CCN3CCN(c4cccc5c4CN(C4CCC(=O)NC4=O)C5=O)CC3)CC2)ccc1Nc1ncc2c(n1)N(C1CCCC1)CC(F)(F)C(=O)N2C` (stereo not drawn) [Compound 81, 4-((9-cyclopentyl-7,7-difluoro-5-methyl-6-oxo-6,7,8,9-tetrahydro-5H-pyrimido[4,5-b][1,4]diazepin-2-yl)amino)-N-(1-(3-(4-(2-(2,6-dioxopiperidin-3-yl)-1-oxoisoindolin-4-yl)piperazin-1-yl)propanoyl)piperidin-4-yl)-3-methoxybenzamide], for which the “Activity: ratio of the luminescense value of each Exemplary Compound treatment group to DMSO treatment group” value (“Activity: ratio” for short) in experiment [1] is “++ (++<0.6)”. In addition, the IC50 was less than 0.05 µM in experiment [2] and greater than 10 µM in experiment [3].

As for `COc1cc(C(=O)NC2CCN(C(=O)CCCNc3cccc4c3CN(C3CCC(=O)NC3=O)C4=O)CC2)ccc1Nc1ncc2c(n1)N(C1CCCC1)CC(F)(F)C(=O)N2C` (stereo not drawn) [Compound 26, 4-((9-cyclopentyl-7,7-difluoro-5-methyl-6-oxo-6,7,8,9-tetrahydro-5H-pyrimido[4,5-b][1,4]diazepin-2-yl)amino)-N-(1-(4-((2-(2,6-dioxopiperidin-3-yl)-1-oxoisoindolin-4-yl)amino)butanoyl)piperidin-4-yl)-3-methoxybenzamide], in experiment [1], the “Activity: ratio” value is given as “++ (++<0.6)”. For the same compound, the IC50 in experiment [2] is less than 0.05 µM; in experiment [3], greater than 10 µM.

`COc1cc(C(=O)N[C@@H]2CCN(C(=O)COc3cccc4c3C(=O)N(C3CCC(=O)NC3=O)C4=O)C2)ccc1Nc1ncc2c(n1)N(C1CCCC1)CC(F)(F)C(=O)N2C` (stereo partly drawn) [Compound 39, 4-((9-cyclopentyl-7,7-difluoro-5-methyl-6-oxo-6,7,8,9-tetrahydro-5H-pyrimido[4,5-b][1,4]diazepin-2-yl)amino)-N-((3R)-1-(2-((2-(2,6-dioxopiperidin-3-yl)-1,3-dioxoisoindolin-4-yl)oxy)acetyl)pyrrolidin-3-yl)-3-methoxybenzamide]: the “Activity: ratio” value in experiment [1] is on record as “++ (++<0.6)”. The concentration for half-maximal inhibition (IC50) in experiment [2] is less than 0.1 µM; in experiment [3], greater than 10 µM.

Turning to `COc1cc(C(=O)NC2CN(CC3CCN(c4ccc5c(c4)C(=O)N(C4CCC(=O)NC4=O)C5=O)CC3)C2)ccc1Nc1ncc2c(n1)N(C1CCCC1)CC(F)(F)C(=O)N2C` (stereo not drawn) [Compound 139, 4-((9-cyclopentyl-7,7-difluoro-5-methyl-6-oxo-6,7,8,9-tetrahydro-5H-pyrimido[4,5-b][1,4]diazepin-2-yl)amino)-N-(1-((1-(2-(2,6-dioxopiperidin-3-yl)-1,3-dioxoisoindolin-5-yl)piperidin-4-yl)methyl)azetidin-3-yl)-3-methoxybenzamide], the “Activity: ratio” value in experiment [1] was “++ (++<0.6)”. Moreover, the concentration for half-maximal inhibition (IC50) in experiment [2] is less than 0.05 µM; in experiment [3], greater than 10 µM.

With `COc1cc(C(=O)N[C@H]2CCN(C(=O)COc3cccc4c3C(=O)N(C3CCC(=O)NC3=O)C4=O)C2)ccc1Nc1ncc2c(n1)N(C1CCCC1)CC(F)(F)C(=O)N2C` (stereo partly drawn) [Compound 40, 4-((9-cyclopentyl-7,7-difluoro-5-methyl-6-oxo-6,7,8,9-tetrahydro-5H-pyrimido[4,5-b][1,4]diazepin-2-yl)amino)-N-((3S)-1-(2-((2-(2,6-dioxopiperidin-3-yl)-1,3-dioxoisoindolin-4-yl)oxy)acetyl)pyrrolidin-3-yl)-3-methoxybenzamide], in experiment [1], the “Activity: ratio” value was “++ (++<0.6)”. Further, the figures for the IC50 in experiment [2] and in experiment [3] were less than 0.2 µM and greater than 10 µM, respectively.

For `COc1cc(C(=O)NC2CCN(C(=O)CCN3CCN(c4cccc5c4C(=O)N(C4CCC(=O)NC4=O)C5=O)CC3)CC2)c(Cl)cc1Nc1ncc2c(n1)N(C1CCCC1)CC(F)(F)C(=O)N2C` (stereo not drawn) [Compound 78, 2-chloro-4-((9-cyclopentyl-7,7-difluoro-5-methyl-6-oxo-6,7,8,9-tetrahydro-5H-pyrimido[4,5-b][1,4]diazepin-2-yl)amino)-N-(1-(3-(4-(2-(2,6-dioxopiperidin-3-yl)-1,3-dioxoisoindolin-4-yl)piperazin-1-yl)propanoyl)piperidin-4-yl)-5-methoxybenzamide], the “Activity: ratio” value in experiment [1] is “+++ (+++: <0.3)”. The IC50 was less than 0.1 µM in experiment [2] and greater than 10 µM in experiment [3].

Turning to `COc1cc(C(=O)N[C@H]2CC[C@H](N3CCN(CCC4CCN(c5cccc6c5C(=O)N(C5CCC(=O)NC5=O)C6=O)CC4)CC3)CC2)c(F)cc1Nc1ncc2c(n1)N(C1CCCC1)CC(F)(F)C(=O)N2C` (stereo partly drawn) [Compound 114, 4-((9-cyclopentyl-7,7-difluoro-5-methyl-6-oxo-6,7,8,9-tetrahydro-5H-pyrimido[4,5-b][1,4]diazepin-2-yl)amino)-N-((1r,4r)-4-(4-(2-(1-(2-(2,6-dioxopiperidin-3-yl)-1,3-dioxoisoindolin-4-yl)piperidin-4-yl)ethyl)piperazin-1-yl)cyclohexyl)-2-fluoro-5-methoxybenzamide], the “Activity: ratio” value in experiment [1] is given as “++ (++<0.6)”. Besides, the 50% inhibitory concentration (IC50) was less than 0.2 µM in experiment [2] and greater than 10 µM in experiment [3].

With `COc1cc(C(=O)NN2CCC(N3CC4(CCN(c5ccc6c(c5)CN(C5CCC(=O)NC5=O)C6=O)CC4)C3)CC2)ccc1Nc1ncc2c(n1)N(C(C)C)CC(F)(F)C(=O)N2C` (stereo not drawn) [Compound 219, 4-((7,7-difluoro-9-isopropyl-5-methyl-6-oxo-6,7,8,9-tetrahydro-5H-pyrimido[4,5-b][1,4]diazepin-2-yl)amino)-N-(4-(7-(2-(2,6-dioxopiperidin-3-yl)-1-oxoisoindolin-5-yl)-2,7-diazaspiro[3.5]nonan-2-yl)piperidin-1-yl)-3-methoxybenzamide], the “Activity: ratio” value in experiment [1] was “++ (++<0.6)”. Further, the IC50 in experiment [2] is less than 0.03 µM; in experiment [3], 13 µM.

Consider `COc1cc(C(=O)N[C@H]2CC[C@H](N3CCN(c4ccc5c(c4)C(=O)N(C4CCC(=O)NC4=O)C5=O)CC3)CC2)ccc1Nc1ncc2c(n1)N(C(C)C)CC(F)(F)C(=O)N2C` (stereo partly drawn) [Compound 150, 4-((7,7-difluoro-9-isopropyl-5-methyl-6-oxo-6,7,8,9-tetrahydro-5H-pyrimido[4,5-b][1,4]diazepin-2-yl)amino)-N-((1r,4r)-4-(4-(2-(2,6-dioxopiperidin-3-yl)-1,3-dioxoisoindolin-5-yl)piperazin-1-yl)cyclohexyl)-3-methoxybenzamide], for which the “Activity: ratio” value in experiment [1] is listed as “++ (++<0.6)”. Further, the IC50 in experiment [2] is less than 0.05 µM; in experiment [3], 19.3 µM.

For the compound `COc1cc(C(=O)NC2CCN(C(=O)CCCOc3cccc4c3CN(C3CCC(=O)NC3=O)C4=O)CC2)ccc1Nc1ncc2c(n1)N(C1CCCC1)CC(F)(F)C(=O)N2C` (stereo not drawn) [Compound 32, 4-((9-cyclopentyl-7,7-difluoro-5-methyl-6-oxo-6,7,8,9-tetrahydro-5H-pyrimido[4,5-b][1,4]diazepin-2-yl)amino)-N-(1-(4-((2-(2,6-dioxopiperidin-3-yl)-1-oxoisoindolin-4-yl)oxy)butanoyl)piperidin-4-yl)-3-methoxybenzamide], the “Activity: ratio” value in experiment [1] was “++ (++<0.6)”. Besides, the IC50 in experiment [2] is less than 0.05 µM; in experiment [3], greater than 10 µM.

Take `COc1cc(C(=O)N[C@H]2CC[C@H](N3CCN(CCOCCNc4cccc5c4C(=O)N(C4CCC(=O)NC4=O)C5=O)CC3)CC2)ccc1Nc1ncc2c(n1)N(C1CCCC1)CC(F)(F)C(=O)N2C` (stereo partly drawn) [Compound 194, 4-((9-cyclopentyl-7,7-difluoro-5-methyl-6-oxo-6,7,8,9-tetrahydro-5H-pyrimido[4,5-b][1,4]diazepin-2-yl)amino)-N-((1r,4r)-4-(4-(2-(2-((2-(2,6-dioxopiperidin-3-yl)-1,3-dioxoisoindolin-4-yl)amino)ethoxy)ethyl)piperazin-1-yl)cyclohexyl)-3-methoxybenzamide]: in experiment [1], the “Activity: ratio” value is “++ (++<0.6)”. Further, the IC50 in experiment [2] is less than 0.05 µM; in experiment [3], greater than 10 µM.

With `COc1cc(C(=O)NN2CCC(N3CC4(CCN(c5cccc6c5C(=O)N(C5CCC(=O)NC5=O)C6=O)CC4)C3)CC2)c(F)cc1Nc1ncc2c(n1)N(C1CCCC1)CC(F)(F)C(=O)N2C` (stereo not drawn) [Compound 209, 4-((9-cyclopentyl-7,7-difluoro-5-methyl-6-oxo-6,7,8,9-tetrahydro-5H-pyrimido[4,5-b][1,4]diazepin-2-yl)amino)-N-(4-(7-(2-(2,6-dioxopiperidin-3-yl)-1,3-dioxoisoindolin-4-yl)-2,7-diazaspiro[3.5]nonan-2-yl)piperidin-1-yl)-2-fluoro-5-methoxybenzamide], the “Activity: ratio” value in experiment [1] is given as “++ (++<0.6)”. For the same compound, the IC50 in experiment [2] was less than 0.05 µM; in experiment [3], 5.31 µM.

The values are drawn from patent US20250114460A1, “NOVEL PLK1 DEGRADATION INDUCING COMPOUND” (UPPTHERA, INC., priority 2021, published 2025).
